The text below walks through data of patent US5688773A, “Method of selectively destroying neoplastic cells” (priority 1994, dated 1997).

Read-outs that look alike come from different tables or passages of the source.

In data set [1] the test system is C6 cells. As to the kind of experiment: Cyclophosphamide dose-response assay. It is filed as cell-based. As to conditions: Rattus norvegicus, up to 1 mM CPA, read-out: cells that survived incubation.
Description: Two days later CPA was added to final concentrations of 0-100 μM. Five days after plating, the monolayers were rinsed twice with Hank's buffered saline (GIBCO) to remove dead cells. Monolayers were dispersed using trypsin-EDTA (GIBCO), and cell numbers were determined using a Coulter counter (Coulter Electronics Inc.).
Data set [2] concerns C6 cells. The data set can be described thus: Cell proliferation assay. The format is cell-based, rat. Conditions: 0.5 mM, four days. How it is done:
Cell proliferation assays: For cell proliferation assays, cells (2×10^5 per dish, unless otherwise noted) were plated onto 10 cm dishes. […] Incubations were continued for four days and cell numbers were assayed using a Coulter counter (Coulter Electronics Inc.), after harvesting in trypsinEDTA.

Data set [3] has as its system C6 cells co-cultured with C6-P450 cells. The data set can be described thus: Co-culture assay (cell-mediated effect). It is filed as cell-based, rat. As to conditions: 0.5 mM CPA; for inhibition at 500 µM: Rattus norvegicus, C6, 96 h, 4 days, read-out: decrease in the proliferation of C6 cells. The procedure: (§1) Co-culture assay: Co-cultures of C6-P450 and C6 cells were incubated in triplicate at different ratios (where 0, 10, 50, 90, and 100% of the cells were C6-P450 cells) to achieve a total number of 2×10^6 cells/10 cm dish. After 24 hours, 0.5 mM CPA was added and four days later, cells were counted as previously described. To compare the killing achieved by cell contact with that obtained by exposure to conditioned medium, the supernatant from each co-culture was harvested, filtered through 0.45 μm membrane filters, mixed in a 1:1 ratio with 5 mL of fresh medium and added to overnight cultures of C6 cells (2×10^6 cells/10 cm dish in triplicate). Four days later, C6 cells were washed, harvested and counted. To determine the specificity of the cell-mediated killing effect from the co-culture assays, C6 cells were incubated overnight with C6 cells that expressed the neomycin phosphotransferase gene (C6-Neo), with irradiated C6 cells, with irradiated C6-Neo, and with irradiated C6-P450 cells. γ-irradiation was performed by exposing cells to a total of 6000 rads emitted by a ^51 chromium source.

Data set [4] concerns C6 cells. As to the kind of experiment: Conditioned medium from co-cultures added to naive C6 cells. It is filed as cell-based, rat. As to conditions: CM from co-cultures with 0, 10, or 50% P450 2B1 cells after four-day CPA. How it is done: as §1
For data set [5], the system named is cytochrome P450 2B1-negative cells (parental 9L and 9L-Z). The data set can be described thus: Drug sensitivity of cultured 9L cells. The format is cell-based, rat. As to conditions: millimolar concentrations. The procedure: To test for drug sensitivity, 1×10^5 cells were plated in 30-mm tissue culture plates (Falcon 3046) in duplicate. Drugs were added 18-24 hours after seeding. Cells were allowed to grow for times ranging up to 5 days after drug treatment, and the final cell number was then determined. Cells were rinsed with phosphate buffered saline or Hank's buffered saline, dispersed using trypsin-EDTA (GIBCO/BRL, Inc.), and then counted with a hemocytometer. Results are expressed as a growth ratio, i.e., the number of cells in plates containing drug as a percentage of the corresponding drug-free controls (mean±range of duplicate determinations).

Another data set has as its system 9L-ZP cells. The data set can be described thus: Drug sensitivity of cultured 9L cells with or without metyrapone. As to conditions: Rattus norvegicus, 120 h.
The test system of data set [6] is C6 cells exposed to CM from C6-P450. The data set can be described thus: C6 colony formation after conditioned medium from drug-exposed cells. Conditions: for Colony numbers: colonies six days later.
Data set [7] deals with C6VIK cells. The data set can be described thus: Ganciclovir sensitivity in vivo, subrenal capsule tumors. Set-up: species or system rat. Conditions: 20 mg/kg intraperitoneally daily; reassessed over a 16-day period; two animals. The source says:
In this study, rat C6 glioma cells were used as a model primary brain tumor type. C6 cells rapidly form a non-encapsulated, non-metastatic tumor after injection into the adult rat CNS. Further, derivative cell lines are available, which lack endogenous TK activity (C6-BUI) or bear the lacZ gene (C6-BAG), which are useful experimentally. A retroviral vector was generated in which the HSV-1-TK gene is regulated by the strong, constitutive retrovirus LTR promoter. C6-BUI cells were infected with this vector and selected for TK activity by growth in HAT medium. Parental and infected cells were tested for their dose-dependent sensitivity to ganciclovir in culture and in vivo following inoculation into the rat subrenal capsule.
Ganciclovir Sensitivity in vivo: Nine rats were implanted in the subrenal capsule with C6VIK cells. Four survived the procedure for further study. Tumors were measured 5 days after implantation. Two animals were treated with ganciclovir (20 mg/kg intraperitoneally daily) and two with saline daily. Tumor size was reassessed over a 16-day period. The two control tumors grew four- to twelve-fold.
This model overcomes the problem of not being able to directly observe the size of an intracerebral tumor implant and the concerns about delivery of ganciclovir through an intact blood-brain barrier.

Data set [8] has as its system C6VIK cells. As to the kind of experiment: GCV killing in culture. The format is cell-based. As to conditions: Rattus norvegicus, read-out: GCV concentration at which 50% of cells were killed. The source says: (§2) Retroviral vectors can be used to transfer genes into the genome of dividing cells. In order to increase the efficiency of gene delivery and killing effect of ganciclovir, a new packaging line (C6VIK-WT) was developed by infecting C6VIK cells with an ecotropic wild-type retrovirus (MoMLV). See Mann et al., Cell 33:153-159 (1983); Price et al., Proc. Natl. Acad. Sci. USA 84:156-160 (1987); and Cepko, C., in Neuromethods, vol. 16, Molecular Neurobiological Techniques, Boulton et al., eds., The Humana Press, Clifton, N.J. (1989), pp. 177-219. Because tumor cells can migrate deep into brain parenchyme, they should be able to deliver the vector to tumor cells away from the tumor mass. In culture, 50% of C6VIK-WT cells were killed at 0.024 μM GCV, while it took 7.3 μM GCV to kill 50% of C6VIK cells. […] When C6VIK and C6VIK-WT were cultured with C6BAG cells (labelled with the lacZ gene and thus detectable by beta-galactosidase histochemistry), following GCV treatment substantially more C6BAG cells were killed when co-cultured with C6VIK-WT than with C6VIK cells. Presumably C6VIK-WT cells produce both wild-type retrovirus and retrovirus vectors containing the HSV-TK gene (neither of which are produced by C6VIK cells) and death of C6BAG cells might be mediated by retrovirus infection and/or self-generated GCV toxic products.

The next data set deals with C6VIK-WT cells. As to the kind of experiment: GCV killing in culture. It is filed as cell-based. Conditions: Rattus norvegicus, read-out: GCV concentration at which 50% of cells were killed.
From the text: as §2

A further data set deals with parental C6 cells. Conditions: subcutaneous, nude mice; cited from earlier work.

On to `O=P1(N(CCCl)CCCl)NCCCO1` (centres unmarked) [cyclophosphamide], for which the viability at 1000 µM in the data set with C6 cells [1] is not below 80%. In the data set on C6 cells [2], the “Effect on cell proliferation” value is given as “had no effect”. Further, the “Cell proliferation assay, number of cells” value in the data set on C6 cells [2] (Table V panel A) was 21.10±1.37 ×10^6. In addition, the “Inhibition of proliferation of remaining C6 cells” value in data set [3] (90% C6-P450 cells, four days) is recorded as “complete inhibition”. Also, the inhibition at 500 µM in [3] (10% of cells express the P450 gene) is 75%; in data set [3] (50% of cells contain the P450 gene) it was approximately 85%. In the data set with C6 cells [4], the “Inhibition of proliferation of C6 cells” value is given as “no inhibition”. Moreover, the Effects on growth result in data set [5] is listed as “no adverse effects”. Also, the cytotoxicity at 1000 µM with 9L-ZP cells is more than 90%. Also, the Colony numbers is 263 ± 6 in data set [6] (CM after 0.5 h of 0.5 mM CPA); 267 ± 9 in [6] (CM after 1.5 h of 0.5 mM CPA); 144 ± 19 in data set [6] (CM after 3 h of 0.5 mM CPA); 94 ± 8 in data set [6] (CM after 6 h of 0.5 mM CPA); 12 ± 0.3 in data set [6] (CM after 10 h of 0.5 mM CPA); 0 in [6] (CM after 24 h of 0.5 mM CPA). In addition, the Colony numbers in data set [6] (CM after 32 h of 0.5 mM CPA), in data set [6] (CM after 48 h of 0.5 mM CPA), in [6] (CM after 72 h of 0.5 mM CPA) and in data set [6] (CM after 96 h of 0.5 mM CPA) was 0 in each case. The “Inhibition of C6 cell colony formation” value in data set [6] (CM after exposure to CPA for 24 hours) is “Complete inhibition”. Besides, the “Toxicity of conditioned medium to C6 cell growth / colony formation” value in data set [6] (CM from treated C6-P450 cells, nine days) was “highly toxic”. Further, in data set [6] (Table V panel C, CM from treated C6-P450 cultures), the “Secretion effect, C6 colony number” value came to 0.
Take `Nc1nc(O)c2ncn(COC(CO)CO)c2n1` [ganciclovir]: the “Tumor size after treatment” value in the data set with C6VIK cells [7] is “smaller after the treatment than before”. Also, the IC50 in the data set with C6VIK cells [8] is 7.3 µM; in the data set with C6VIK-WT cells, 0.024 µM. In the data set with parental C6 cells, the Tumor growth entry was “had no effect on tumor growth”.
